Values quoted from earlier work as cited in patent publication US9040545B2, “Heterocyclyl pyrazolopyrimidine analogues as selective JAK inhibitors” (Cellzome Limited, priority 2010, dated 2015).

Experiments:
[1] = literature; cited from earlier work
[2] = literature; cited from earlier work; remark: listed apart in the source
[3] = NOD mouse, literature; cited from earlier work

Row | Structure (SMILES) | efficacy in an animal model of organ transplantation [1] | severity of GVHD [2] | spontaneous autoimmune diabetes development [3]
1 | C[C@@H]1CCN(C(=O)CC#N)C[C@@H]1N(C)c1ncnc2[nH]ccc12 [CP-690,550] | efficacy |  | 
2 | COc1cc2ncnc(Nc3ccc(O)cc3)c2cc1OC [JANEX-1] |  | attenuate the severity of GVHD | prevent spontaneous autoimmune diabetes development
